{"source": "paper PMC10046369", "about": "“Low-Affinity/High-Selectivity Dopamine Transport Inhibition Sufficient to Rescue Cognitive Functions in the Aging Rat” (Biomolecules, 2023)", "assay_in_all_cases": "biochemical", "set-up_in_all_cases": "KINOMEscan competition binding panel, per cent of control", "details_in_all_cases": "read-out: %Ctrl @ 2800nM", "key": {"PIK3CA": {"biological_target": "PIK3CA (Homo sapiens, UniProt P42336)", "summary_of_the_method": "(§1)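 Values are expressed as percent of control, calculated as ((test − positive control)/(negative control − positive control)) × 100, so lower numbers mean stronger hits. Binding was measured by KINOMEscan competition assay in a 450-kinase human panel including disease mutants, using the contractor's validated protocol.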"}, "PIK3CA(C420R)": {"biological_target": "PIK3CA(C420R) (Homo sapiens, UniProt P42336, C420R)", "sequence (P42336 whole entry C420R)": "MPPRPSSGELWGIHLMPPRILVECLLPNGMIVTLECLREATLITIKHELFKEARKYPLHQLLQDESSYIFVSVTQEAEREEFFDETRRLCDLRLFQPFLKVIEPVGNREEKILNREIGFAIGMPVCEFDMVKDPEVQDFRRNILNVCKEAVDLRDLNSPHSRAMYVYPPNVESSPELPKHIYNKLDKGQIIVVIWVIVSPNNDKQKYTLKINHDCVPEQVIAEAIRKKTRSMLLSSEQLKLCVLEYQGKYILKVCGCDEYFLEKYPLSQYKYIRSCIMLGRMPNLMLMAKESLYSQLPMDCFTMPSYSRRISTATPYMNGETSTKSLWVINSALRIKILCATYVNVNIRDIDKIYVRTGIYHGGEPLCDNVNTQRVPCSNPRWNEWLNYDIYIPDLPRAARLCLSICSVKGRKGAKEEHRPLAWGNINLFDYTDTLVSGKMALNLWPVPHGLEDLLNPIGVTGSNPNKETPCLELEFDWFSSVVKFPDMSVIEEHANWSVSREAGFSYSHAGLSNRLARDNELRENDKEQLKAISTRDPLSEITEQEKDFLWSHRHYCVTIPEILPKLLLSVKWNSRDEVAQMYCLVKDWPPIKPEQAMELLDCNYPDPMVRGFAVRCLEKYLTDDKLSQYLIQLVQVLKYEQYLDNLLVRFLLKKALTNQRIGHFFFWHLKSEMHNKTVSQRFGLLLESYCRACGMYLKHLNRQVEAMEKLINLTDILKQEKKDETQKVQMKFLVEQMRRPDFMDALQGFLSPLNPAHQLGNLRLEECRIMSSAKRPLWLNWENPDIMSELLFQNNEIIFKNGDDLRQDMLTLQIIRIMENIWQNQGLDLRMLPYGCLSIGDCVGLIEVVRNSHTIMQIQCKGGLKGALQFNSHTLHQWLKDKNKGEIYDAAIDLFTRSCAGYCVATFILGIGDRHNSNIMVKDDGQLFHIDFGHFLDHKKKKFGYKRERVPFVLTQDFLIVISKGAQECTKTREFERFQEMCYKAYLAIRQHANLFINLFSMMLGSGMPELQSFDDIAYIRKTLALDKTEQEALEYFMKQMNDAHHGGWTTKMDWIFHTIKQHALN", "summary_of_the_method": "as §1"}, "TIE1": {"biological_target": "TIE1 (Homo sapiens, UniProt P35590)", "summary_of_the_method": "as §1"}, "NEK5": {"biological_target": "NEK5 (Homo sapiens, UniProt Q6P3R8)", "sequence (Q6P3R8 whole entry)": "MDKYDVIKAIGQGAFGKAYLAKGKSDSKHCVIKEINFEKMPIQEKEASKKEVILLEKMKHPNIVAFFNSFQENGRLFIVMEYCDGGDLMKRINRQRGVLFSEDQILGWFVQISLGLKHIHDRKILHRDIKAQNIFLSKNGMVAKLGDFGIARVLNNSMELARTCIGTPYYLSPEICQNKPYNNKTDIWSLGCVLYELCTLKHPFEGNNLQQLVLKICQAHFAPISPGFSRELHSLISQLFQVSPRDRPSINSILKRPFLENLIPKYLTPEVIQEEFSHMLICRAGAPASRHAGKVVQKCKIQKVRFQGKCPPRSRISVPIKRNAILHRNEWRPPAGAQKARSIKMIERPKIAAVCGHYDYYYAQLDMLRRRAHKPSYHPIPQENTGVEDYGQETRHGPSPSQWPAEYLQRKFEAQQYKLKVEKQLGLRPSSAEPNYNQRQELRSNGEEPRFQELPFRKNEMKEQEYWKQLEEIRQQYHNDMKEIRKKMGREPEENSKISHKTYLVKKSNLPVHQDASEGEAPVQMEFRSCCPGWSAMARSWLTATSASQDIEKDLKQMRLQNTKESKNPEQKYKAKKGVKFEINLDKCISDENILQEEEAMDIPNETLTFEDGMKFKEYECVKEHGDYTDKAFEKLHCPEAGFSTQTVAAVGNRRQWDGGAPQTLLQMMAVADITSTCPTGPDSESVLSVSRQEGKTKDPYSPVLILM", "summary_of_the_method": "as §1"}, "RAF1": {"biological_target": "RAF1 (Homo sapiens, UniProt P04049)", "summary_of_the_method": "as §1"}, "[1]": {"biological_target": "T1, ABL1(M351T)-phosphorylated (Homo sapiens, UniProt P00519, M351T)", "T1 construct": "phosphorylated", "summary_of_the_method": "as §1"}, "EGFR(L858R)": {"biological_target": "EGFR(L858R) (Homo sapiens, UniProt P00533, L858R)", "summary_of_the_method": "as §1"}, "IRAK3": {"biological_target": "IRAK3 (Homo sapiens, UniProt Q9Y616)", "summary_of_the_method": "as §1"}, "FRK": {"biological_target": "FRK (Homo sapiens, UniProt P42685)", "sequence (P42685 whole entry)": "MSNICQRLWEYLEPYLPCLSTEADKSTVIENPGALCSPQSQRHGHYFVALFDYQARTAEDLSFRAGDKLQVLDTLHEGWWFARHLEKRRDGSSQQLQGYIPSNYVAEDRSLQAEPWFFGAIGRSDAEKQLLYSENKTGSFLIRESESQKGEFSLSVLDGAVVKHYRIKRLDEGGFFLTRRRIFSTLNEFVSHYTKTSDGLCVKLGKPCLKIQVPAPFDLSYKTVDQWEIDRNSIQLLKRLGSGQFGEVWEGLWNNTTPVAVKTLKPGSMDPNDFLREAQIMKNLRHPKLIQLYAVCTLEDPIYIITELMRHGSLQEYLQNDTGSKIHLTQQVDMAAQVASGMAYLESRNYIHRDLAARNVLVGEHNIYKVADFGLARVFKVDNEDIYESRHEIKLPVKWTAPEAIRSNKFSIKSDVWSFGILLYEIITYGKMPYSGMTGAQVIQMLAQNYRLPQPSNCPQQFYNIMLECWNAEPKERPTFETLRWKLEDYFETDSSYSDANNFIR", "summary_of_the_method": "as §1"}, "PDPK1": {"biological_target": "PDPK1 (Homo sapiens, UniProt O15530)", "summary_of_the_method": "as §1"}, "PKMYT1": {"biological_target": "PKMYT1 (Homo sapiens, UniProt Q99640)", "sequence (Q99640 whole entry)": "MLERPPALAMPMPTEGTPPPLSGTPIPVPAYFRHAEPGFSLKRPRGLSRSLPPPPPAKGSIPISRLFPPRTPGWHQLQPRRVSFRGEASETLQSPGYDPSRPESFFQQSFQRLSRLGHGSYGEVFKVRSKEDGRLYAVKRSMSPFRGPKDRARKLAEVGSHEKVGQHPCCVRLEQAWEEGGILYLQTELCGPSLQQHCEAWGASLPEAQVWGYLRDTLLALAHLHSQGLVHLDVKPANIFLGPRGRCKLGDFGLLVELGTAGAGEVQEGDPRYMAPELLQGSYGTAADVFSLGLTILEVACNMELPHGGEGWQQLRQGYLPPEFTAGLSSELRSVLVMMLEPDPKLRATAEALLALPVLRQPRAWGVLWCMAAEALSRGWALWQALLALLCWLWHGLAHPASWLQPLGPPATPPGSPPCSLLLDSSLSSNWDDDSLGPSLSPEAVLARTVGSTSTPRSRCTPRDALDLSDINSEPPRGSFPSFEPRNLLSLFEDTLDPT", "summary_of_the_method": "as §1"}, "SLK": {"biological_target": "SLK (Homo sapiens, UniProt Q9H2G2)", "summary_of_the_method": "as §1"}, "EPHA8": {"biological_target": "EPHA8 (Homo sapiens, UniProt P29322)", "summary_of_the_method": "as §1"}, "[2]": {"biological_target": "T2, ABL1(F317I)-phosphorylated (Homo sapiens, UniProt P00519, F317I)", "T2 construct": "phosphorylated", "summary_of_the_method": "as §1"}, "HASPIN": {"biological_target": "HASPIN (Homo sapiens, UniProt Q8TF76)", "sequence (Q8TF76 whole entry)": "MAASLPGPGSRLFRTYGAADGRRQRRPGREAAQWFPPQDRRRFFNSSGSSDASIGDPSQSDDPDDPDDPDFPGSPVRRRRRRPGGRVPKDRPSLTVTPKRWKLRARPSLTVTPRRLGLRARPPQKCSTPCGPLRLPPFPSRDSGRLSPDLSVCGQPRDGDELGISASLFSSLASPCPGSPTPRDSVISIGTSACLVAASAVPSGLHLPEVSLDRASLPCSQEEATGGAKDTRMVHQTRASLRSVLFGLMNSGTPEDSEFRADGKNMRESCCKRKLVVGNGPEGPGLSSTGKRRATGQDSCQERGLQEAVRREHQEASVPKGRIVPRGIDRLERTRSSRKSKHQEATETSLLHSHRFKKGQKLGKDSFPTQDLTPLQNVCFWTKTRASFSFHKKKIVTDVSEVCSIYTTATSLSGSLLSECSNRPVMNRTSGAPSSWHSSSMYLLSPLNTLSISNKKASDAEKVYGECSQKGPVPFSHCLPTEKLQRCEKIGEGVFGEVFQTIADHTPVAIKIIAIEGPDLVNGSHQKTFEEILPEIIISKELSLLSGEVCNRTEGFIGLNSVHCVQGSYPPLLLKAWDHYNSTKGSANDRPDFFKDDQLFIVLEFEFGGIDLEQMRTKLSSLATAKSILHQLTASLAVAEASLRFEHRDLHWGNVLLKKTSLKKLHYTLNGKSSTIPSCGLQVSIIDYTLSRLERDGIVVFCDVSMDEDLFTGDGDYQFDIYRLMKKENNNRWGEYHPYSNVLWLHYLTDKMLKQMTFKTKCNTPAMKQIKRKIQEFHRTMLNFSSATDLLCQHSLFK", "summary_of_the_method": "as §1"}, "PAK2": {"biological_target": "PAK2 (Homo sapiens, UniProt Q13177)", "sequence (Q13177 whole entry)": "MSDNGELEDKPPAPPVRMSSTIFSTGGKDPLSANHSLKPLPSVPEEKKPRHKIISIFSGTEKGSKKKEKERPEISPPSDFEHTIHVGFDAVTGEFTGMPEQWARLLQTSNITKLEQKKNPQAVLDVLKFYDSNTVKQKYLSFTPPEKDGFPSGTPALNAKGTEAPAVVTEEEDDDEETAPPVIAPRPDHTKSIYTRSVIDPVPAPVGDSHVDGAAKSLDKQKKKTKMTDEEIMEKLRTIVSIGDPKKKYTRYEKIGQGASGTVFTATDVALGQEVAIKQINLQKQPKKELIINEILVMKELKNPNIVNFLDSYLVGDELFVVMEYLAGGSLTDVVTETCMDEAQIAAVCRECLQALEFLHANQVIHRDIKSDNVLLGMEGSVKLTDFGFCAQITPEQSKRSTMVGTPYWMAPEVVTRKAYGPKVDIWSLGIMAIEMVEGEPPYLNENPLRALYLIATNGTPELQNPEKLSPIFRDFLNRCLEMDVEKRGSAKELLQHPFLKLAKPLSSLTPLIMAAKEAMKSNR", "summary_of_the_method": "as §1"}, "CLK4": {"biological_target": "CLK4 (Homo sapiens, UniProt Q9HAZ1)", "summary_of_the_method": "as §1"}, "ABL1-phosphorylated": {"biological_target": "T3, ABL1-phosphorylated (Homo sapiens, UniProt P00519)", "T3 construct": "phosphorylated", "summary_of_the_method": "as §1"}, "STK35": {"biological_target": "STK35 (Homo sapiens, UniProt Q8TDR2)", "summary_of_the_method": "as §1"}, "CAMK2D": {"biological_target": "CAMK2D (Homo sapiens, UniProt Q13557)", "summary_of_the_method": "as §1"}, "PKN2": {"biological_target": "PKN2 (Homo sapiens, UniProt Q16513)", "summary_of_the_method": "as §1"}, "LATS1": {"biological_target": "LATS1 (Homo sapiens, UniProt O95835)", "summary_of_the_method": "as §1"}, "BIKE": {"biological_target": "T4, BIKE (Homo sapiens, UniProt Q9NSY1)", "T4 construct": "gene BMP2K", "summary_of_the_method": "as §1"}, "PRKD2": {"biological_target": "PRKD2 (Homo sapiens, UniProt Q9BZL6)", "summary_of_the_method": "as §1"}, "ARK5": {"biological_target": "T5, ARK5 (Homo sapiens, UniProt O60285)", "T5 construct": "gene NUAK1", "summary_of_the_method": "as §1"}, "EPHA2": {"biological_target": "EPHA2 (Homo sapiens, UniProt P29317)", "sequence (P29317 whole entry)": "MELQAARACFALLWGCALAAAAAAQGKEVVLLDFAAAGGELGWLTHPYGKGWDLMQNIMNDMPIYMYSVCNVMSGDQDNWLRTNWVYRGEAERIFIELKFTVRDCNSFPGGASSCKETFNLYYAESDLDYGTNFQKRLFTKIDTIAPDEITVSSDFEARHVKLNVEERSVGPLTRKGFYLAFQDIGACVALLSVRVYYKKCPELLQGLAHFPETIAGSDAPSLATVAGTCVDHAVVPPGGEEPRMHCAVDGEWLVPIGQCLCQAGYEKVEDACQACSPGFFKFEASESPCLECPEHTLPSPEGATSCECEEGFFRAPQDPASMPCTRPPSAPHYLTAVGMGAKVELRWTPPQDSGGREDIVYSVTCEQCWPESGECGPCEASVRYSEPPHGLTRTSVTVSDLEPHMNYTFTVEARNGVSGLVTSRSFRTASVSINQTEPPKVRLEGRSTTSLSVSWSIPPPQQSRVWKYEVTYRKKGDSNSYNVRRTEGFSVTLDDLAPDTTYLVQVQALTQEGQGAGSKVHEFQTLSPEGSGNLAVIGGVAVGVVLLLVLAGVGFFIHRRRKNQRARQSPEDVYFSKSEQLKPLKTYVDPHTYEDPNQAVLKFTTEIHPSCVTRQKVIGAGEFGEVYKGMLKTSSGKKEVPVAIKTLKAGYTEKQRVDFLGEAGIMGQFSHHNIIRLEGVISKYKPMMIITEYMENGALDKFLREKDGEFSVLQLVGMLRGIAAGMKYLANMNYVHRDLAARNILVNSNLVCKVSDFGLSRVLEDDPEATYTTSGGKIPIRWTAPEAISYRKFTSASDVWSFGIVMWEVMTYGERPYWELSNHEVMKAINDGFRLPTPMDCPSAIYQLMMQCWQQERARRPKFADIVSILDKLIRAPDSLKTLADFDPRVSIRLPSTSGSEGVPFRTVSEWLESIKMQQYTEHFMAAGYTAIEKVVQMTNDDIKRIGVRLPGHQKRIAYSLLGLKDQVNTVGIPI", "summary_of_the_method": "as §1"}}, "data": [{"smiles": "[O-][S@@+](Cc1cncs1)C(c1ccccc1)c1ccccc1", "note": "[S-CE-123, (S)-5-((Benzhydrylsulfinyl)Methyl)Thiazole]", "values": [{"measurement": "remaining binding at 2.8 µM", "setting": "PIK3CA", "result": 80, "unit": "%"}, {"measurement": "remaining binding at 2.8 µM", "setting": "PIK3CA(C420R)", "result": 92, "unit": "%"}, {"measurement": "remaining binding at 2.8 µM", "setting": "TIE1", "result": 100, "unit": "%"}, {"measurement": "remaining binding at 2.8 µM", "setting": "NEK5", "result": 90, "unit": "%"}, {"measurement": "remaining binding at 2.8 µM", "setting": "RAF1", "result": 76, "unit": "%"}, {"measurement": "remaining binding at 2.8 µM", "setting": "[1]", "result": 100, "unit": "%"}, {"measurement": "remaining binding at 2.8 µM", "setting": "EGFR(L858R)", "result": 92, "unit": "%"}, {"measurement": "remaining binding at 2.8 µM", "setting": "IRAK3", "result": 96, "unit": "%"}, {"measurement": "remaining binding at 2.8 µM", "setting": "FRK", "result": 96, "unit": "%"}, {"measurement": "remaining binding at 2.8 µM", "setting": "PDPK1", "result": 95, "unit": "%"}, {"measurement": "remaining binding at 2.8 µM", "setting": "PKMYT1", "result": 88, "unit": "%"}, {"measurement": "remaining binding at 2.8 µM", "setting": "SLK", "result": 100, "unit": "%"}, {"measurement": "remaining binding at 2.8 µM", "setting": "EPHA8", "result": 100, "unit": "%"}, {"measurement": "remaining binding at 2.8 µM", "setting": "[2]", "result": 92, "unit": "%"}, {"measurement": "remaining binding at 2.8 µM", "setting": "HASPIN", "result": 95, "unit": "%"}, {"measurement": "remaining binding at 2.8 µM", "setting": "PAK2", "result": 77, "unit": "%"}, {"measurement": "remaining binding at 2.8 µM", "setting": "CLK4", "result": 100, "unit": "%"}, {"measurement": "remaining binding at 2.8 µM", "setting": "ABL1-phosphorylated", "result": 100, "unit": "%"}, {"measurement": "remaining binding at 2.8 µM", "setting": "STK35", "result": 98, "unit": "%"}, {"measurement": "remaining binding at 2.8 µM", "setting": "CAMK2D", "result": 88, "unit": "%"}, {"measurement": "remaining binding at 2.8 µM", "setting": "PKN2", "result": 86, "unit": "%"}, {"measurement": "remaining binding at 2.8 µM", "setting": "LATS1", "result": 93, "unit": "%"}, {"measurement": "remaining binding at 2.8 µM", "setting": "BIKE", "result": 97, "unit": "%"}, {"measurement": "remaining binding at 2.8 µM", "setting": "PRKD2", "result": 98, "unit": "%"}, {"measurement": "remaining binding at 2.8 µM", "setting": "ARK5", "result": 100, "unit": "%"}, {"measurement": "remaining binding at 2.8 µM", "setting": "EPHA2", "result": 73, "unit": "%"}]}]}
